Assay results reported in PubChem BioAssay (NCI).
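Interpolation was linear, between the two tested concentrations surrounding the appropriate level; five concentrations were tested over 48 hours in 96-well plates. TGI is the concentration that stops growth completely.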

Assays:
Assay in all cases: growth of human tumour cells (NCI), 48 h
ACHN renal = test system: ACHN renal
M14 melanoma = test system: M14 melanoma
M19-MEL melanoma = test system: M19-MEL melanoma
786-0 renal = test system: 786-0 renal
SNB-78 CNS = test system: SNB-78 CNS
SNB-75 CNS = test system: SNB-75 CNS
DMS 114 small cell lung = test system: DMS 114 small cell lung
HT29 colon = test system: HT29 colon
SK-OV-3 ovarian = test system: SK-OV-3 ovarian
COLO 205 colon = test system: COLO 205 colon
TK-10 renal = test system: TK-10 renal
UO-31 renal = test system: UO-31 renal
KM12 colon = test system: KM12 colon
SNB-19 CNS = test system: SNB-19 CNS
SF-539 CNS = test system: SF-539 CNS
OVCAR-4 ovarian = test system: OVCAR-4 ovarian
NCI-H460 lung = test system: NCI-H460 lung
LOX IMVI melanoma = test system: LOX IMVI melanoma
MALME-3M melanoma = test system: MALME-3M melanoma
SF-268 CNS = test system: SF-268 CNS
OVCAR-3 ovarian = test system: OVCAR-3 ovarian
DLD-1 colon = test system: DLD-1 colon
OVCAR-5 ovarian = test system: OVCAR-5 ovarian
HOP-18 NSCLC = test system: HOP-18 NSCLC
RPMI-8226 leukemia = test system: RPMI-8226 leukemia
NCI-H522 lung = test system: NCI-H522 lung
MOLT-4 leukemia = test system: MOLT-4 leukemia
A549 NSCLC = test system: A549 NSCLC
SK-MEL-2 melanoma = test system: SK-MEL-2 melanoma
U251 CNS = test system: U251 CNS
UACC-257 melanoma = test system: UACC-257 melanoma
K-562 leukemia = test system: K-562 leukemia
CCRF-CEM leukemia = test system: CCRF-CEM leukemia
IGROV1 ovarian = test system: IGROV1 ovarian
HOP-62 NSCLC = test system: HOP-62 NSCLC
EKVX NSCLC = test system: EKVX NSCLC
SW-620 colon = test system: SW-620 colon
SR leukemia = test system: SR leukemia
KM20L2 colon = test system: KM20L2 colon
SF-295 CNS = test system: SF-295 CNS
UACC-62 melanoma = test system: UACC-62 melanoma
DMS 273 small cell lung = test system: DMS 273 small cell lung
NCI-H23 lung = test system: NCI-H23 lung
SK-MEL-5 melanoma = test system: SK-MEL-5 melanoma
HCT-15 colon = test system: HCT-15 colon
SK-MEL-28 melanoma = test system: SK-MEL-28 melanoma
RXF 393 renal = test system: RXF 393 renal
A498 renal = test system: A498 renal
HCT-116 colon = test system: HCT-116 colon
SN12C renal = test system: SN12C renal
OVCAR-8 ovarian = test system: OVCAR-8 ovarian
HL-60(TB) leukemia = test system: HL-60(TB) leukemia
LXFL 529 NSCLC = test system: LXFL 529 NSCLC
NCI-H226 lung = test system: NCI-H226 lung
HOP-92 NSCLC = test system: HOP-92 NSCLC

**Q.** What does the source list for CN(C)CC/C(=N\Nc1ccc(Cl)cc1)c1ccccc1?
**A.** TGI (ACHN renal): 2590 nM; TGI (M14 melanoma): 3.17 µM; TGI (M19-MEL melanoma): 3.2 µM; TGI (786-0 renal): 3.88 µM; TGI (SNB-78 CNS): 5.13 µM; TGI (SNB-75 CNS): 6.45 µM; TGI (DMS 114 small cell lung): 4.45 µM; TGI (HT29 colon): 3 µM; TGI (SK-OV-3 ovarian): 7.04 µM; TGI (COLO 205 colon): 3.27 µM; TGI (TK-10 renal): 2320 nM; TGI (UO-31 renal): 986 nM; TGI (KM12 colon): 2930 nM; TGI (SNB-19 CNS): 6.91 µM; TGI (SF-539 CNS): 3.65 µM; TGI (OVCAR-4 ovarian): 7.05 µM; TGI (NCI-H460 lung): 2450 nM; TGI (LOX IMVI melanoma): 691 nM; TGI (MALME-3M melanoma): 3.95 µM; TGI (SF-268 CNS): 3.67 µM; TGI (OVCAR-3 ovarian): 3.15 µM; TGI (DLD-1 colon): 3.74 µM; TGI (OVCAR-5 ovarian): 2660 nM; TGI (HOP-18 NSCLC): 7.78 µM; TGI (RPMI-8226 leukemia): 3.13 µM; TGI (NCI-H522 lung): 3.78 µM; TGI (MOLT-4 leukemia): 10.2 µM; TGI (A549 NSCLC): 3.29 µM; TGI (SK-MEL-2 melanoma): 4.58 µM; TGI (U251 CNS): 1740 nM; TGI (UACC-257 melanoma): 3.35 µM; TGI (K-562 leukemia): 1030 nM; TGI (CCRF-CEM leukemia): 11.2 µM; TGI (IGROV1 ovarian): 4.67 µM; TGI (HOP-62 NSCLC): 3.62 µM; TGI (EKVX NSCLC): 4.35 µM; TGI (SW-620 colon): 2370 nM; TGI (SR leukemia): 4.4 µM; TGI (KM20L2 colon): 349 nM; TGI (SF-295 CNS): 1250 nM; TGI (UACC-62 melanoma): 2070 nM; TGI (DMS 273 small cell lung): 1610 nM; TGI (NCI-H23 lung): 3.93 µM; TGI (SK-MEL-5 melanoma): 3.27 µM; TGI (HCT-15 colon): 1230 nM; TGI (SK-MEL-28 melanoma): 2920 nM; TGI (RXF 393 renal): 10.3 µM; TGI (A498 renal): 10.8 µM; TGI (HCT-116 colon): 2600 nM; TGI (SN12C renal): 4.13 µM; TGI (OVCAR-8 ovarian): 11.5 µM; TGI (HL-60(TB) leukemia): 2170 nM; TGI (LXFL 529 NSCLC): 373 nM

**Q.** What does the source list for Cn1nc(-c2cccc(-c3nn(C)c(=NCCO)s3)n2)sc1=NCCO?
**A.** TGI (ACHN renal): > 100000 nM; TGI (M14 melanoma): > 100 µM; TGI (M19-MEL melanoma): > 100 µM; TGI (786-0 renal): > 100 µM; TGI (SNB-78 CNS): > 100 µM; TGI (SNB-75 CNS): > 100 µM; TGI (DMS 114 small cell lung): > 100 µM; TGI (HT29 colon): > 100 µM; TGI (NCI-H226 lung): > 100 µM; TGI (COLO 205 colon): > 100 µM; TGI (KM12 colon): > 100000 nM; TGI (SNB-19 CNS): > 100 µM; TGI (SF-539 CNS): > 100 µM; TGI (OVCAR-4 ovarian): > 100 µM; TGI (NCI-H460 lung): > 100000 nM; TGI (LOX IMVI melanoma): > 100000 nM; TGI (SF-268 CNS): > 100 µM; TGI (DLD-1 colon): > 100 µM; TGI (OVCAR-5 ovarian): > 100000 nM; TGI (HOP-18 NSCLC): > 100 µM; TGI (RPMI-8226 leukemia): > 100 µM; TGI (NCI-H522 lung): > 100 µM; TGI (MOLT-4 leukemia): > 100 µM; TGI (A549 NSCLC): > 100 µM; TGI (U251 CNS): > 100000 nM; TGI (UACC-257 melanoma): > 100 µM; TGI (K-562 leukemia): > 100000 nM; TGI (CCRF-CEM leukemia): > 100 µM; TGI (IGROV1 ovarian): > 100 µM; TGI (HOP-62 NSCLC): > 100 µM; TGI (EKVX NSCLC): > 100 µM; TGI (SW-620 colon): > 100000 nM; TGI (SR leukemia): > 100 µM; TGI (KM20L2 colon): > 100000 nM; TGI (SF-295 CNS): > 100000 nM; TGI (UACC-62 melanoma): > 100000 nM; TGI (DMS 273 small cell lung): > 100000 nM; TGI (NCI-H23 lung): > 100 µM; TGI (SK-MEL-5 melanoma): > 100 µM; TGI (HCT-15 colon): > 100000 nM; TGI (SK-MEL-28 melanoma): > 100000 nM; TGI (RXF 393 renal): > 100 µM; TGI (HOP-92 NSCLC): > 100 µM; TGI (A498 renal): > 100 µM; TGI (HCT-116 colon): > 100000 nM; TGI (SN12C renal): > 100 µM; TGI (OVCAR-8 ovarian): > 100 µM; TGI (HL-60(TB) leukemia): > 100000 nM; TGI (LXFL 529 NSCLC): > 100000 nM
